The values that follow come from patent publication US12564553B2, “Suspension containing heterocyclidene acetamide derivative” (SENJU PHARMACEUTICAL CO., LTD., priority 2021, dated 2026).

This data set is described as follows: Stability of Compound (1) in nonionic surfactant solution (content retention rate, liquid chromatography). The format is physicochemical. The following applies: aqueous solution in glass ampoule stored at 25° C. for 1 month (1M). How it is done: As used herein, the term “stability” refers to the degree to which the content of (E)-2-(7-trifluoromethylchroman-4-ylidene)-N-(7-hydroxy-5,6,7,8-tetrahydronaphthalen-1-yl)acetamide, or a pharmaceutically acceptable salt or solvate thereof, dissolved and/or suspended in an aqueous suspension is maintained without being altered by decomposition or the like after storage for a certain period of time. In addition, as used herein, the “stability” is evaluated by the content maintenance ratio, which is the ratio of the content of (E)-2-(7-trifluoromethylchroman-4-ylidene)-N-(7-hydroxy-5,6,7,8-tetrahydronaphthalen-1-yl)acetamide, or a pharmaceutically acceptable salt or solvate thereof, in the aqueous suspension agent stored for a certain period after preparation to the content of (E)-2-(7-trifluoromethylchroman-4-ylidene)-N-(7-hydroxy-5,6,7,8-tetrahydronaphthalen-1-yl)acetamide, or a pharmaceutically acceptable salt or solvate thereof, in the aqueous suspension agent immediately after preparation. Typically, this evaluation is determined by evaluating the content retention rate of (E)-2-(7-trifluoromethylchroman-4-ylidene)-N-(7-hydroxy-5,6,7,8-tetrahydronaphthalen-1-yl)acetamide, or a pharmaceutically acceptable salt or solvate thereof, dissolved in the aqueous suspension agent. […]

Structures are written as SMILES.

For `O=C(/C=C1\CCOc2cc(C(F)(F)F)ccc21)Nc1cccc2c1C[C@H](O)CC2` [Compound (1), (E)-2-(7-trifluoromethylchroman-4-ylidene)-N-((7R)-7-hydroxy-5,6,7,8-tetrahydronaphthalen-1-yl)acetamide], the “content retention rate (to display ratio %)” value stood at 100%.
